Source: patent US20220023289A1, “Application Of Pyrroloquinoline Quinone In Preparation Of Medicament Used For Preventing And Treating Acute Altitude Sickness And Acute Altitude Hypoxia Injury” (priority 2018, published 2022)

Experiments:
Type in all cases: in vivo, Wistar rat
[1] = test system: rats exposed to acute altitude hypoxia; assay: Endothelial function (serum endothelin-1, nitric oxide) in rats exposed to acute altitude hypoxia
Source text: This method uses nitrate reductase specificity reduce NO^3− to NO^2−, and then determine the level of its concentration by displaying shades of color. Operate according to the kit instructions, measure the absorbance of each tube at a wavelength of 550 nm, and then calculate the content of nitric oxide of the sample to be tested according to the formula. To the coated microwells pre-coated with rat endothelin (endothelin-1) capture antibody, add in sequence specimens, standards, and HRP-labeled detection antibody, and then incubate and wash thoroughly. Use a substrate TMB for color development. TMB is converted into blue under the catalysis of peroxidase and converted into the final yellow color under the action of acid. The color intensity is positively correlated with the rat endothelin (endothelin-1) in the sample.

[2] = test system: rats with acute altitude hypoxia injury; assay: Oxidative stress indexes of rats with acute altitude hypoxia injury
Source text: Operate according to the instructions, and then measure the absorbance value of each tube, and afterwards calculate the content of malondialdehyde in the sample to be tested according to the formula. […] The latter oxidizes hydroxylamine to form nitrite. It appears purplish red under the action of chromogenic agent. Measure its absorbance by a visible light spectrophotometer. When the measured sample contains superoxide dismutase, it has specific inhibitory effect on superoxide anion free radicals, make formed nitrite reduced. […] The superoxide dismutase activity in the tested sample can be calculated by formula calculation. […] The latter can form a stable complex with phenanthrophins and measure its antioxidant capacity by colorimetry. Operate according to the kit instructions, measure the absorbance of each tube at a wavelength of 520 nm, and then calculate the total antioxidant capacity in the sample to be tested according to the formula.

[3] = test system: rats exposed to acute altitude hypoxia; assay: Renal function in rats exposed to acute altitude hypoxia
Method: Select healthy Wistar rats weight 160-200 g, half female and half male. After feeding for 3 days, these Wistar rats are randomly divided into ten groups according to their body weight, each group has 16±2 rats. The groups are divided as follows: five groups of the hypoxic exposure drug test group, respectively, are given 0.91 mg/kg, 1.83 mg/kg, 3.66 mg/kg, 7.31 mg/kg, and 14.63 mg/kg drugs. […] After continuous intragastric administration for 7 days, the animals in the hypoxic exposure group are simultaneously put into the decompression and hypoxia compound experimental chamber, the hatch is closed, and the pressure is reduced at a speed of 10 m/s. After being raised to an altitude of 6000 m and maintained for 8 hours, the speed in 10 m/s drops is reduced to normal altitude, open the hatch, and then take out the animal, collect blood samples (after standing for 1 hour, the supernatant is centrifuged and stored at −20° C.), and liver tissue samples. Detection indicator includes body weight, serum blood glucose, ATP, lactic acid, endothelin, nitric oxide, SOD, CO, MDA related to oxidative stress, and total protein, albumin, triglycerides, total cholesterol, high-density lipoprotein cholesterol, low-density lipoprotein cholesterol, glutamic pyruvic transaminase, total bilirubin, gluamic oxalacetic transaminase, serum urea nitrogen, creatinine, uric acid, lactate dehydrogenase, creatine kinase, α-hydroxybutyrate dehydrogenase; liver ATP, hepatic glycogen. Except that the formal oxygen control animal group is not put into the decompression and hypoxia compound experimental chamber, other experimental conditions and detection indicators are the same.
Measure blood glucose, total protein, albumin, triglycerides, total cholesterol, high-density lipoprotein cholesterol, low-density lipoprotein cholesterol, glutamic-pyruvic transaminase, total bilirubin, glutamic oxalacetic transaminase, serum urea nitrogen, creatinine, uric acid, lactate dehydrogenase, creatine kinase, α-hydroxybutyrate dehydrogenase, blood homocysteine by using an automatic blood biochemical analyzer.

[4] = female rats after acute hypoxia exposure
[5] = female rats, hypoxia, 0.91 mg/kg
[6] = female rats, hypoxia, 1.83 mg/kg
[7] = female rats, hypoxia, 3.66 mg/kg
[8] = female rats, hypoxia, 7.31 mg/kg
[9] = female rats, hypoxia, 14.63 mg/kg
[10] = female rats, normoxia, 3.66 mg/kg
[11] = male rats, hypoxia, 14.63 mg/kg

With `O=C(O)c1cc(C(=O)O)c2c(n1)C(=O)C(=O)c1cc(C(=O)O)[nH]c1-2` [PQQ, pyrroloquinoline quinone] the “effect on nitric oxide” value [1, 4] was “no significant effect”, the “effect on serum endothelin-1 content” value [1, 4] was “can increase” and the Endothelin-1 [1, 5] was 64.75 ± 2.72 ng/mL. It also gave a Nitric oxide [1, 5] of 3.50 ± 1.24 µmol/L, an Endothelin-1 [1, 6] of 63.21 ± 4.33 ng/mL and a Nitric oxide [1, 6] of 4.47 ± 1.35 µmol/L. The Endothelin-1 [1, 7] was 68.58 ± 5.38 ng/mL, the Nitric oxide [1, 7] was 6.19 ± 2.06 µmol/L and the Endothelin-1 [1, 8] was 65.44 ± 14.06 ng/mL. The Nitric oxide [1, 8] was 5.92 ± 2.31 µmol/L, the Endothelin-1 [1, 9] was 65.26 ± 6.60 ng/mL and the Nitric oxide [1, 9] was 4.62 ± 3.25 µmol/L. For the same compound, the “effect on nitric oxide content” value ([1]; female rats, normoxia) was “no significant effects”, the “effect on serum endothelin-1 content” value ([1]; female rats, normoxia) was “can reduce” and the Endothelin-1 [1, 10] was 47.50 ± 7.31 ng/mL. The Nitric oxide [1, 10] was 5.01 ± 1.57 µmol/L, the “effect on serum endothelin-1 and nitric oxide” value ([1]; hypoxia exposed male rats) was “no significant effects” and the Endothelin-1 ([1]; male rats, hypoxia, 0.91 mg/kg) was 45.35 ± 4.24 ng/mL. It also gave a Nitric oxide ([1]; male rats, hypoxia, 0.91 mg/kg) of 5.28 ± 0.71 µmol/L, an Endothelin-1 ([1]; male rats, hypoxia, 1.83 mg/kg) of 42.59 ± 1.45 ng/mL and a Nitric oxide ([1]; male rats, hypoxia, 1.83 mg/kg) of 5.15 ± 2.11 µmol/L. The Endothelin-1 ([1]; male rats, hypoxia, 3.66 mg/kg) was 48.14 ± 3.13 ng/mL, the Nitric oxide ([1]; male rats, hypoxia, 3.66 mg/kg) was 5.35 ± 1.35 µmol/L and the Endothelin-1 ([1]; male rats, hypoxia, 7.31 mg/kg) was 43.60 ± 0.94 ng/mL. The Nitric oxide ([1]; male rats, hypoxia, 7.31 mg/kg) was 6.20 ± 2.49 µmol/L, the Endothelin-1 [1, 11] was 42.45 ± 3.84 ng/mL and the Nitric oxide [1, 11] was 6.46 ± 1.44 µmol/L. For the same compound, the “Endo Dialdehyde” value [2, 5] was 15.07 ± 1.91 nmol/L, the Superoxide dismutase [2, 5] was 66.11 ± 4.18 U/ml and the Total antioxidants [2, 5] was 10.52 ± 1.08 U/ml. The “Endo Dialdehyde” value [2, 6] was 13.96 ± 1.33 nmol/L, the Superoxide dismutase [2, 6] was 60.79 ± 2.56 U/ml and the Total antioxidants [2, 6] was 10.06 ± 0.77 U/ml. The “Endo Dialdehyde” value [2, 7] was 13.73 ± 0.27 nmol/L, the Superoxide dismutase [2, 7] was 56.82 ± 3.80 U/ml and the Total antioxidants [2, 7] was 10.84 ± 0.47 U/ml. For the same compound, the “Endo Dialdehyde” value [2, 8] was 14.14 ± 2.68 nmol/L, the Superoxide dismutase [2, 8] was 56.65 ± 2.97 U/ml and the Total antioxidants [2, 8] was 10.37 ± 0.75 U/ml. The “Endo Dialdehyde” value [2, 9] was 14.81 ± 1.37 nmol/L, the Superoxide dismutase [2, 9] was 56.16 ± 3.64 U/ml and the Total antioxidants [2, 9] was 10.59 ± 1.65 U/ml. The effect on malondialdehyde ([2]; female rats, normoxia) was “can slightly increase”, the “effect on serum superoxide dismutase and total antioxidants” value ([2]; female rats, normoxia) was “no significant effects” and the “Endo Dialdehyde” value [2, 10] was 14.39 ± 0.85 nmol/L. For the same compound, the Superoxide dismutase [2, 10] was 52.21 ± 1.23 U/ml, the Total antioxidants [2, 10] was 11.28 ± 0.83 U/ml and the “effect on serum superoxide dismutase activity” value ([2]; hypoxia exposed female rats) was “can increase”. The “effect on serum total antioxidants and malondialdehyde” value ([2]; hypoxia exposed female rats) was “no significant effects”, the “effect on serum superoxide dismutase activity” value ([2]; hypoxia exposed male rats) was “can increase” and the “effect on serum total antioxidants and malondialdehyde” value ([2]; male rats) was “no significant effect”. The Malonaldehyde ([2]; male rats, hypoxia, 0.91 mg/kg) was 2.79 ± 0.62 nmol/L, the Superoxide dismutase ([2]; male rats, hypoxia, 0.91 mg/kg) was 196.26 ± 4.15 U/ml and the Total antioxidants ([2]; male rats, hypoxia, 0.91 mg/kg) was 3.17 ± 1.40 U/ml. The Malonaldehyde ([2]; male rats, hypoxia, 1.83 mg/kg) was 2.89 ± 1.09 nmol/L, the Superoxide dismutase ([2]; male rats, hypoxia, 1.83 mg/kg) was 193.38 ± 4.53 U/ml and the Total antioxidants ([2]; male rats, hypoxia, 1.83 mg/kg) was 2.77 ± 1.10 U/ml. The Malonaldehyde ([2]; male rats, hypoxia, 3.66 mg/kg) was 3.9 ± 1.39 nmol/L, the Superoxide dismutase ([2]; male rats, hypoxia, 3.66 mg/kg) was 189.59 ± 5.46 U/ml and the Total antioxidants ([2]; male rats, hypoxia, 3.66 mg/kg) was 3.81 ± 0.97 U/ml. The Malonaldehyde ([2]; male rats, hypoxia, 7.31 mg/kg) was 3.15 ± 0.99 nmol/L, the Superoxide dismutase ([2]; male rats, hypoxia, 7.31 mg/kg) was 186.20 ± 6.32 U/ml and the Total antioxidants ([2]; male rats, hypoxia, 7.31 mg/kg) was 3.62 ± 1.94 U/ml. It also gave a Malonaldehyde [2, 11] of 3.59 ± 1.15 nmol/L, a Superoxide dismutase [2, 11] of 179.58 ± 6.32 U/ml and a Total antioxidants [2, 11] of 1.49 ± 2.30 U/ml. It also gave a Creatinine [3, 5] of 14.67 ± 1.46 µmol/L, a Serum urea nitrogen [3, 5] of 6.85 ± 0.90 mmol/L and a Uric acid [3, 5] of 163.43 ± 12.51 µmol/L. It also gave a Creatinine [3, 6] of 14.23 ± 1.90 µmol/L, a Serum urea nitrogen [3, 6] of 5.98 ± 0.62 mmol/L and a Uric acid [3, 6] of 152.71 ± 16.58 µmol/L. It also gave a Creatinine [3, 7] of 12.71 ± 1.98 µmol/L, a Serum urea nitrogen [3, 7] of 5.79 ± 0.62 mmol/L and a Uric acid [3, 7] of 151.14 ± 18.48 µmol/L. The Creatinine [3, 8] was 16.06 ± 1.19 µmol/L, the Serum urea nitrogen [3, 8] was 6.00 ± 0.98 mmol/L and the Uric acid [3, 8] was 152.43 ± 25.28 µmol/L. It also gave a Creatinine [3, 9] of 13.51 ± 1.33 µmol/L, a Serum urea nitrogen [3, 9] of 5.86 ± 0.54 mmol/L and a Uric acid [3, 9] of 155.33 ± 21.56 µmol/L. For the same compound, the “effect on serum urea nitrogen, creatinine and uric acid” value ([3]; female rats, normoxia) was “no significant effects”, the Creatinine [3, 10] was 19.37 ± 4.32 µmol/L and the Serum urea nitrogen [3, 10] was 6.23 ± 0.36 mmol/L. The Uric acid [3, 10] was 193.57 ± 20.80 µmol/L, the “effect on serum urea nitrogen, creatinine and uric acid” value ([3]; hypoxia exposed female rats) was “no significant effects” and the “effect on serum urea nitrogen and creatinine” value ([3]; hypoxia exposed male rats) was “no significant effect”. The “effect on serum uric acid content” value ([3]; hypoxia exposed male rats, low-dose) was “reduce serum uric acid content”, the Creatinine ([3]; male rats, hypoxia, 0.91 mg/kg) was 18.44 ± 1.46 µmol/L and the Serum urea nitrogen ([3]; male rats, hypoxia, 0.91 mg/kg) was 5.13 ± 0.75 mmol/L. The Uric acid ([3]; male rats, hypoxia, 0.91 mg/kg) was 134.25 ± 19.08 µmol/L, the Creatinine ([3]; male rats, hypoxia, 1.83 mg/kg) was 21.59 ± 3.31 µmol/L and the Serum urea nitrogen ([3]; male rats, hypoxia, 1.83 mg/kg) was 5.44 ± 1.13 mmol/L. The Uric acid ([3]; male rats, hypoxia, 1.83 mg/kg) was 142.60 ± 10.78 µmol/L, the Creatinine ([3]; male rats, hypoxia, 3.66 mg/kg) was 21.90 ± 2.88 µmol/L and the Serum urea nitrogen ([3]; male rats, hypoxia, 3.66 mg/kg) was 6.37 ± 1.64 mmol/L.
